Reference: publication PMC3708395, “Hepatoprotective and Antioxidant Effects of Saponarin, Isolated from Gypsophila trichotoma Wend. on Paracetamol-Induced Liver Damage in Rats” (BioMed Research International, 2013)
Values joined by “and” are separate entries in the source; they are usually repeats but may differ in a detail not shown here. Identical values can stand only once. “Also recorded” adds a separate entry of the source. Each block holds one compound with its values, some of them ahead of it.

Legend:
Male Wistar rats [1] = assay: Antioxidant enzyme activities (SOD, CAT, GPx, GR, GST) in rat liver homogenate, in vivo paracetamol model; details: for CAT / GPx / GR / GST / SOD: rat liver homogenate
Excerpt: The animals were divided into six groups (n = 6). […] The animals in all groups were sacrificed on the eighth day of the beginning of the experiment. Livers were taken for assessment of biochemical parameters. For all following experiments the excised livers were washed out with cold saline solution (0.9% NaCl), blotted dray, weighed, and homogenized with appropriate buffers. The livers were rinsed in ice-cold physiological saline and minced with scissors. […] Catalase (CAT) activity was determined by measuring the decrease in absorbance at 240 nm. […] SOD activity was expressed as nmol of epinephrine that are prevented from autoxidation after addition of the sample. […] The rate of disappearance of NADPH with time was determined by monitoring absorbance at 340 nm. Results are expressed in nmol/mg. Glutathione reductase activity (GR) was measured according to the method of Pinto et al. by following NADPH oxidation spectrophotometrically at 340 nm and using an extinction coefficient of 6.22 mM^−1 cm^−1. […] The enzyme activity is expressed as nmol of CDNB-GSH conjugate formed/min/mg protein.

Male Wistar rats [2] = assay: Histopathological study of liver; type: in vivo, rat
Excerpt: The animals were divided into six groups (n = 6). […] The animals in all groups were sacrificed on the eighth day of the beginning of the experiment. Livers were taken for assessment of biochemical parameters. For all following experiments the excised livers were washed out with cold saline solution (0.9% NaCl), blotted dray, weighed, and homogenized with appropriate buffers. For light microscopic evaluation, liver tissues were fixed in 10% buffered formalin and then thin sections (4 μm) were subsequently stained with hematoxylin/eosin for general histological features determination. Sections were studied under light microscope Leica DM 500.

Male Wistar rats [3] = assay: GSH level in rat liver homogenate, in vivo paracetamol model; details: for GSH: rat liver homogenate
Method: The animals were divided into six groups (n = 6). […] The animals in all groups were sacrificed on the eighth day of the beginning of the experiment. Livers were taken for assessment of biochemical parameters. For all following experiments the excised livers were washed out with cold saline solution (0.9% NaCl), blotted dray, weighed, and homogenized with appropriate buffers. GSH was assessed by measuring nonprotein sulfhydryls after precipitation of proteins with TCA, using the method described by Bump et al.. Briefly, tissues were homogenized in 5% trichloroacetic acid (TCA) and centrifugated for 20 min at 4 000 ×g. […] The absorbance was determined at 412 nm and the results expressed as nmol/g wet tissue.

Male Wistar rats [4] = assay: Lipid peroxidation (MDA) in rat liver homogenate, in vivo paracetamol model; details: for MDA: rat liver homogenate
Method: The animals were divided into six groups (n = 6). […] The animals in all groups were sacrificed on the eighth day of the beginning of the experiment. Livers were taken for assessment of biochemical parameters. For all following experiments the excised livers were washed out with cold saline solution (0.9% NaCl), blotted dray, weighed, and homogenized with appropriate buffers. Lipid peroxidation was determined by measuring the rate of production of thiobarbituric acid reactive substances (TBARS) (expressed as malondialdehyde (MDA) equivalents) described by Polizio and Peña with slight modifications. Briefly one volume of homogenate was mixed with 1 mL 25% trichloroacetic acid (TCA) and 1 mL 0.67% thiobarbituric acid (TBA). Samples were then mixed thoroughly, heated for 20 min in a boiling water bath, cooled and centrifuged at 4000 rpm for 20 min. The absorbance of supernatant was measured at 535 nm against a blank that contained all the reagents except the tissue homogenate. MDA concentration was calculated using a molar extinction coefficient of 1.56 × 10^5 M^−1 cm^−1 and expressed in nmol/g wet tissue.

Male Wistar rats [5] = assay: Phase I of biotransformation: cytochrome P450, EMND and AH in rat liver microsomes after in vivo treatment
Method: The animals were divided into six groups (n = 6). […] The animals in all groups were sacrificed on the eighth day of the beginning of the experiment. Livers were taken for assessment of biochemical parameters. For all following experiments the excised livers were washed out with cold saline solution (0.9% NaCl), blotted dray, weighed, and homogenized with appropriate buffers. The excised, perfused, and minced livers were homogenized with 3 mL of 1.17% KCl than centrifugated at 10 000 ×g for 30 min. The supernatant fractions were further centrifugated at 105 000 ×g for 60 min. The resulting microsomal pellets were stored at −20°C until assayed. At the day of assay the microsomal pellets were resuspended and diluted with phosphate buffer EDTA (pH = 7.4). Liver protein concentration was measured, using the method of Lowry and was adjusted to 4 mg/mL. (1) Assessment of Cytochrome P450 Quantity. Cytochrome P450 was quantified spectrophotometrically as a complex with CO at 450 nm and expressed as nmol/mg^−1 protein [28]. […] The method used 4-hydroxylation of aniline to 4-aminophenol that is chemically converted to a phenol-indophenol complex with an absorption maximum at 630 nm. Enzyme activity was expressed as nmol/min/mg. […] The enzyme activity was evaluated by the formation of formaldehyde, trapped in the solution as semicarbazone, and measured by the colorimetric procedure of Nash, at 415 nm. Enzyme activity was expressed as nmol/min/mg.

isolated rat hepatocytes = assay: Paracetamol-induced model of toxicity in isolated rat hepatocytes; details: 30 min preincubation with saponarin 60–0.006 μg/mL, then paracetamol 100 μmol for one hour; concentration-dependent
Method: The effect of saponarin was compared to those of silymarin (50–0.005 μg/mL). The following parameters were measured to assess the functional status of hepatocytes: cell viability, lactate dehydrogenase (LDH) activity, reduced glutathione (GSH) levels, and malondialdehyde (MDA) quantity. Cell viability was assessed by Trypan blue exclusion method [19]. The dye was used at a final concentration of 0.05% and cells were counted under light microscope (×100). At the end of incubation, the cells were recovered via centrifugation at 400 ×g at 4°C. The supernatant was used for LDH and MDA assessment as described by Bergmeyer et al. [21] and Fau at al. [19], respectively. GSH measurement following the method used by Fau at al. [19] was assessed in the sediment.

[6] = design: method as in earlier work; details: concentration range 0.5 mg/mL; cited from earlier work
[7] = paracetamol 600 mg/kg i.p. alone, compared to control animals
[8] = paracetamol 600 mg/kg i.p. alone
[9] = saponarin 80 mg/kg bw/day p.o. 7 days, alone
[10] = saponarin pretreatment seven days then single i.p. paracetamol, compared to paracetamol alone
[11] = rat liver microsomes, saponarin 80 mg/kg bw/day p.o. 7 days, alone
[12] = saponarin alone 80 mg/kg p.o. 7 days, vs control
[13] = saponarin 80 mg/kg p.o. 7 days pretreatment then paracetamol 600 mg/kg i.p.

decrease in CAT activity (Male Wistar rats [1]; [7]): 27% | decrease in GPx activity (Male Wistar rats [1]; [7]): 31-32% | decrease in GR activity (Male Wistar rats [1]; [7]): 38% | decrease in GST activity (Male Wistar rats [1]; [7]): 31% and 31-32% | CAT (Male Wistar rats [1]; [8]): 88.3 ± 10 μmol H2O2/min/mg protein | GPx (Male Wistar rats [1]; [8]): 0.089 ± 0.01 nmol/min/mg protein | GR (Male Wistar rats [1]; [8]): 0.137 ± 0.02 nmol/min/mg protein | SOD (Male Wistar rats [1]; [8]): 0.114 ± 0.012 nmol/min/mg protein | reduction in GSH levels in rat liver homogenate (Male Wistar rats [3]; [7]): 83% | GSH (Male Wistar rats [3]; [8]): 0.96 ± 0.05 nmol/g protein | increase of MDA level in rat liver homogenate (Male Wistar rats [4]; paracetamol 600 mg/kg i.p. alone, vs control animals): 30% | MDA (Male Wistar rats [4]; [8]): 0.854 ± 0.04 nmol/g protein
Compound: CC(=O)Nc1ccc(O)cc1 [paracetamol]
GST (Male Wistar rats [1]; [8]): 0.160 ± 0.01 nmol CDNB-GSH conjugate formed/min/mg protein | liver histopathology (Male Wistar rats [2]; paracetamol 600 mg/kg i.p. alone, hematoxylin/eosin, light microscopy): treatment-related changes associated with hepatotoxicity; also recorded: centriacinar and microvesicular accumulation of fats

AH activity (Male Wistar rats [5]; [11]): 0.047 ± 0.004 nmol/mg protein | Cytochrome P450 (Male Wistar rats [5]; [11]): 0.244 ± 0.05 nmol/mg protein | EMND activity (Male Wistar rats [5]; [11]): 0.371 ± 0.011 nmol/mg protein | decrease in AH activity (Male Wistar rats [5]; [12]): 37% | decrease in EMND activity (Male Wistar rats [5]; [12]): 24% | decrease in total P450 quantity (Male Wistar rats [5]; [12]): 25%
Compound: apigenin 6-C-glucosyl-7-O-glucoside [saponarin]
CAT (Male Wistar rats [1]; [9]): 110.4 ± 16 μmol H2O2/min/mg protein | GPx (Male Wistar rats [1]; [9]): 0.125 ± 0.02 nmol/min/mg protein | GR (Male Wistar rats [1]; [9]): 0.207 ± 0.03 nmol/min/mg protein | GST (Male Wistar rats [1]; [9]): 0.208 ± 0.02 nmol CDNB-GSH conjugate formed/min/mg protein | SOD (Male Wistar rats [1]; [9]): 0.158 ± 0.015 nmol/min/mg protein | increase in GPx activity (Male Wistar rats [1]; [10]): 21% | increase in GR activity (Male Wistar rats [1]; [10]): 39% | increase in GST activity (Male Wistar rats [1]; [10]): 21% | increase in SOD activity (Male Wistar rats [1]; [10]): 24% | liver histopathology (Male Wistar rats [2]; rats pretreated with saponarin (80 mg/kg p.o. 7 days) then challenged with paracetamol 600 mg/kg i.p.): lower intensity of mononuclear accumulations and the presence of single cells showing intracellular oedema; also recorded: significant improvement of hepatocellular architecture | GSH (Male Wistar rats [3]; [9]): 5.14 ± 0.31 nmol/g protein | GSH levels compared to the paracetamol-only group (Male Wistar rats [3]; [13]): significantly higher levels of GSH | protection against paracetamol-induced injury (cell viability, LDH activity, MDA quantity, GSH levels) (isolated rat hepatocytes): prevented the liver injury | MDA (Male Wistar rats [4]; [9]): 0.635 ± 0.07 nmol/g protein | MDA content relative to control level (Male Wistar rats [4]; [13]): restored to the control level | reduction of MDA in rat liver homogenate (Male Wistar rats [4]; saponarin 80 mg/kg p.o. 7 days pretreatment then paracetamol 600 mg/kg i.p., compared to PC-treated group): 18% | inhibition of DPPH radical [6]: 88.8%
